Measured values published in patent US9931401B2, “Combination comprising anti-fibroblast growth factor receptor 2 (FGFR2) antibody and a tyrosine kinase inhibitor” (Daiichi Sankyo Company, Limited, priority 2013, dated 2018).
Entries after “also recorded” stand apart in the source; their conditions may differ.

Assays:
[1] = system: human stomach cancer cell line SNU-16; assay: In vivo combined use with AZD4547, SNU-16-transplanted nude mice; set-up: species or system nude mouse
Description: A human stomach cancer cell line SNU-16 (purchased from ATCC) was adjusted to 5×10^7 cells/mL with a 1:1 mixed solution of PBS and Matrigel (purchased from Nippon Becton Dickinson Company, Ltd.), and 0.1 mL of the cell suspension was subcutaneously transplanted to the axillary region of each nude mouse (CAnN.Cg-Foxnl^nu/CrlCrlj, female, 5 to 6 weeks old, purchased from Charles River Laboratories Japan Inc.). […] The major axis (mm) and minor axis (mm) of the tumor were measured over time using an electronic digital caliper (manufactured by Mitsutoyo Corp.). The tumor volume was calculated according to the following expression: Tumor volume (mm^3)=½×[Major axis of the tumor]×[Minor axis of the tumor]×[Minor axis of the tumor]
The antitumor effect was evaluated on the basis of the percentage of tumor growth inhibition (TGI %) at 21 days after transplantation (final assay day) according to the following expression: TGI (%)=(1−A/B)×100

SNU-16 cells = assay: Amount of antigen FGFR2 on cell surface of SNU-16 treated with low-molecular compound (QIFIKIT); format: cell-based, human; conditions: 100 to 1000 nM; compared with untreated or DMSO-treated SNU-16 cells
Description: This operation was repeated twice. […] The data was analyzed using Flowjo (manufactured by Tree Star Inc.).

[2] = system: human stomach cancer cell line SNU-16; assay: In vivo combined use with Ki23057, SNU-16-transplanted nude mice; set-up: species or system nude mouse; conditions: in combination with hFR2-14_H19/L1 20 mg/kg
Description: A human stomach cancer cell line SNU-16 (purchased from ATCC) was adjusted to 5×10^7 cells/mL with a 1:1 mixed solution of PBS and Matrigel (purchased from Nippon Becton Dickinson Company, Ltd.), and 0.1 mL of the cell suspension was subcutaneously transplanted to the axillary region of each nude mouse (CAnN.Cg-Foxnl^nu/CrlCrlj, female, 5 to 6 weeks old, purchased from Charles River Laboratories Japan Inc.). […] Administration of hFR2-14_H19/L1 was carried out 8, 11, 15, and 18 days after transplantation, and administration of Ki23057 was carried out 8, 9, 10, 11, 15, 16, 17, and 18 days after transplantation. The major axis (mm) and minor axis (mm) of the tumor were measured over time using an electronic digital caliper (manufactured by Mitsutoyo Corp.). The tumor volume was calculated according to the following expression: Tumor volume (mm^3)=½×[Major axis of the tumor]×[Minor axis of the tumor]×[Minor axis of the tumor]
The antitumor effect was evaluated on the basis of the percentage of tumor growth inhibition (TGI %) at 21 days after transplantation (3 days after final administration) and 32 days after transplantation (final assay day) according to the following expression: TGI (%)=(1−A/B)×100

| Structure (SMILES) | number of CR individuals among 9 mice at 21 days after transplantation ([1]; administered alone, hFR2-14_H19/L1 20 mg/kg) | TGI at 21 days after transplantation (final assay day) ([1]; hFR2-14_H19/L1 20 mg/kg intraperitoneally, AZD4547 3 mg/kg orally) [%] | number of the antigen FGFR2 on cell surface (SNU-16 cells) | TGI at 21 days after transplantation ([2]; Ki23057 5 mg/kg orally) [%] | TGI at 32 days after transplantation (final assay day) ([2]; Ki23057 5 mg/kg orally) [%] | TGI at 21 days after transplantation ([2]; Ki23057 20 mg/kg orally) [%] | TGI at 32 days after transplantation (final assay day) ([2]; Ki23057 20 mg/kg orally) [%] |
| --- | --- | --- | --- | --- | --- | --- | --- |
| COc1cc(CCc2cc(NC(=O)c3ccc(N4C[C@@H](C)N[C@@H](C)C4)cc3)n[nH]2)cc(OC)c1 [AZD4547, N-(5-(3,5-dimethoxyphenethyl)-1H-pyrazol-3-yl)-4-((3S,5R)-3,5-dimethylpiperazin-1-yl)benzamide, reference compound] | 0 | 24 | – | – | – | – | – |
| COc1cc2c(Oc3ccc(Nc4ccc(C(C)(C)C)cc4)cc3)ccnc2cc1OCCNCCO [Ki23057, 2-((2-((4-(4-((4-(tert-butyl)phenyl)amino)phenoxy)-6-methoxyquinolin-7-yl)oxy)ethyl)amino)ethanol] | – | – | elevated; also recorded: increased | 7 | 1 | 29 | −14 |
